Experimental data from patent publication US20170081357A1, “[…] ACTIVE 17-NITROGEN SUBSTITUTED ESTRATREINTHIAZOLE DERIVATIVES AS INHIBITORS OF 17.BETA-HYDROXYSTEROID DEHYDROGENASE” (FORENDO PHARMA LTD, priority 2013, published 2017).

Tests used:
[1] = target: T1, recombinant human 17β-HSD1 (Homo sapiens, UniProt P14061); test: Inhibition of recombinant human 17β-HSD1 (conversion of 3H-estrone to estradiol, HPLC); assay type: biochemical; conditions: inhibitor 1 μM; 30 nM estrone, 1 mM NADPH, 30 min at RT; read-out: 17β-HDS1 Inhibition % at 1 μM
T1 construct: made in house; host or cells: Sd9 (Sf9) insect cells, baculovirus (Bac to Bac Expression System); microsomal fraction
T1 sequence (P14061 1-328): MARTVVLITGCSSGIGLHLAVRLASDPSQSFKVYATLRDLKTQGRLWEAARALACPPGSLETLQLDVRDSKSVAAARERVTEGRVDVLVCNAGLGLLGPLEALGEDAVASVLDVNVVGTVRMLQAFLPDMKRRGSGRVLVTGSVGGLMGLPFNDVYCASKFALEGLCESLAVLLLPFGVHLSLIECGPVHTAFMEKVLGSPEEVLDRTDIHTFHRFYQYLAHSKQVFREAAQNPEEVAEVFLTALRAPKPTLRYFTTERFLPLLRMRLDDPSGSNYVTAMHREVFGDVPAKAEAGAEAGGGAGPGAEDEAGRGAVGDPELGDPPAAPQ
How it was run: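 Microsomal recombinant human 17β-HSD1 (1 μg/ml) from insect cells incubated 30 min at RT in 20 mM KH2PO4 pH 7.4 with 30 nM 3H-estrone, 1 mM NADPH and inhibitor at 1 μM or 0.1 μM (1% DMSO). Estrone/estradiol separated by reverse-phase HPLC with radioactivity flow detection; % inhibition = 100 − % conversion.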

[2] = target: T2, recombinant human 17β-HSD2 (Homo sapiens, UniProt P37059); test: Inhibition of recombinant human 17β-HSD2 (conversion of 3H-estradiol to estrone, HPLC); assay type: biochemical; conditions: inhibitor 1 μM; 50 nM estradiol, 1 mM NADH, 30 min at RT
T2 construct: made in house; host or cells: Sd9 (Sf9) insect cells, baculovirus (Bac to Bac Expression System); fractionated cell extract
T2 sequence (P37059 1-387): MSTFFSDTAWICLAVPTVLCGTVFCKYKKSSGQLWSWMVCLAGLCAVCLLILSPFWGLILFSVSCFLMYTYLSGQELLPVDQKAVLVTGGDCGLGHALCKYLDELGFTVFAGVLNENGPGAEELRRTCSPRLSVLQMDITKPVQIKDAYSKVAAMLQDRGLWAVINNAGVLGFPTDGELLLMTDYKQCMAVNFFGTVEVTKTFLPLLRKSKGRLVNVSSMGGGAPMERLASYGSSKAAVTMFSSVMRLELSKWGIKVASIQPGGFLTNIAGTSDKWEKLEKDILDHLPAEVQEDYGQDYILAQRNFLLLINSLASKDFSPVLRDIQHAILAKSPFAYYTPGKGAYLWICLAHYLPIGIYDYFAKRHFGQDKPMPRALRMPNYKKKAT
How it was run: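 Baculovirus/Sf9-expressed enzyme in detergent-solubilised membrane extract, 4 μg/ml, incubated 30 min at RT in 20 mM KH2PO4 pH 8.5 with 50 nM estradiol (³H-tracer) and 1 mM NADH; inhibitor at 1 μM or 0.1 μM, 1% DMSO final. TCA-stopped; estrone/estradiol separated by reverse-phase HPLC with flow scintillation; % inhibition = 100 − % conversion.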

[3] = Metabolic stability assay, human liver microsome and homogenate incubations; assay type: in vitro ADME; conditions: human liver homogenate or microsomes, LC/PDA/TOF-MS
Description: The in vitro metabolic stability of the compounds of the invention was determined for exemplified compounds using human liver microsome and homogenate incubations. The incubation time points used with or without appropriate cofactors were 0 min and 60 min. Samples were collected at both time points and substrates were detected using LC/PDA/TOF-MS. In vitro metabolic stability (% remaining after 60 min in human liver homogenate or microsomes) of the compounds were calculated and the results are summarized in Table 3.

With CO/N=C1\C[C@@H](CCC(=O)Nc2ncc(C)s2)C2C3CCc4c(ccc(O)c4F)C3CC[C@]12C (stereo partly drawn) [Compound 92, 3-{(13S,15R)-4-Fluoro-3-hydroxy-17-[(E)-methoxyimino]-13-methyl-7,8,9,11,12,13,14,15,16,17-decahydro-6H-cyclopenta[a]phenanthren-15-yl}-N-(5-methylthiazol-2-yl)propanamide] the inhibition at 1 µM [1] was 90%, the inhibition at 1 µM [2] was 7% and the “In vitro metabolic stability, % remaining after 60 min” value [3] was 68%.
